For the data set, the system named is luciferase gene expression in HEK 293 cells in response to Comp. 004. Nature of the data set: Screen of riboswitch constructs with 12C6-1 variant aptamers (libraries N1-N5) against Comp. 004, luciferase in HEK 293 cells. It counts as cell-based, human. The note with it: library N5 variant aptamers (L5, X16-X21 randomized) of 12C6-1 in riboswitch constructs; in response to Comp. 004 treatment; HEK 293 cells. The procedure, abridged: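 Riboswitch constructs carrying 12C6-1 aptamer variants, randomized in J2-4, J2-3/J3-3a/J3a-2/P3, L3a, J4-5/J5-4/P4 or L5 regions (libraries N1-N5), cloned into an intron-exon-intron cassette driving luciferase. Screened in HEK 293 cells with 25 µM Comp. 004; read-out is fold induction of gene expression versus parent Luci-12C6-1.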
For “N5_1C9 (CTGGGGAGTCCT; chemistry not given here)”, the “Fold (induction of luciferase gene expression)” value (shortened to “Fold”) is 915.3 fold. Next, “N5_1C10 (CTGGGGAGTCCT; chemistry not given here)”: 693.8 fold.

As for “N5_1C11 (CTGGGGAGTCCT; chemistry not given here)”, the “Fold” value was found to be 484.2 fold. Next, “N5_1D1 (CTGGGGAGTCCT; chemistry not given here)”: 321.6 fold. On to “N5_1D2 (CTGGGGAGTCCT; chemistry not given here)”, for which the “Fold” value was 561.3 fold. In the case of “N5_1D3 (CTGGGGAGTCCT; chemistry not given here)”, the “Fold” value is reported as 697.1 fold. Take “N5_1D4 (CTGGGGAGTCCT; chemistry not given here)”: the “Fold” value was 522.9 fold. Next, “N5_1D5 (CTGGGGAGTCCT; chemistry not given here)”: 841.7 fold; “N5_1D6 (CTGGGGAGTCCT; chemistry not given here)”: 684.9 fold.

Turning to “N5_1D8 (CTGGGGAGTCCT; chemistry not given here)”, the “Fold” value came to 383.5 fold. As for “N5_1D10 (CTGGGGAGTCCT; chemistry not given here)”, the “Fold” value worked out at 762.7 fold. On to “N5_1D11 (CTGGGGAGTCCT; chemistry not given here)”, for which the “Fold” value is recorded as 4.8 fold. Next, “N5_1D12 (CTGGGGAGTCCT; chemistry not given here)”: 3.6 fold; “N5_1E1 (CTGGGGAGTCCT; chemistry not given here)”: 566.4 fold. Next, “N5_1E2 (CTGGGGAGTCCT; chemistry not given here)”: 728.6 fold; “N5_1E4 (CTGGGGAGTCCT; chemistry not given here)”: 834.9 fold. Next, “N5_1E5 (CTGGGGAGTCCT; chemistry not given here)”: 681.3 fold. Take “N5_1E6 (CTGGGGAGTCCT; chemistry not given here)”: the “Fold” value is on record as 365.1 fold. As for “N5_1E8 (CTGGGGAGTCCT; chemistry not given here)”, the “Fold” value is 691.8 fold. With “N5_1E9 (CTGGGGAGTCCT; chemistry not given here)”, the “Fold” value is given as 699.7 fold.

Take “N5_1E10 (CTGGGGAGTCCT; chemistry not given here)”: the “Fold” value stood at 1026.1 fold. Next, “N5_1E11 (CTGGGGAGTCCT; chemistry not given here)”: 1095.6 fold; “N5_1E12 (CTGGGGAGTCCT; chemistry not given here)”: 1588.2 fold; “N5_1F1 (CTGGGGAGTCCT; chemistry not given here)”: 557.2 fold. Next, “N5_1F2 (CTGGGGAGTCCT; chemistry not given here)”: 415.1 fold; “N5_1F3 (CTGGGGAGTCCT; chemistry not given here)”: 212.8 fold. Next, “N5_1F4 (CTGGGGAGTCCT; chemistry not given here)”: 958.5 fold; “N5_1F6 (CTGGGGAGTCCT; chemistry not given here)”: 247.6 fold; “N5_1F9 (CTGGGGAGTCCT; chemistry not given here)”: 685.1 fold. In the case of “N5_1F10 (CTGGGGAGTCCT; chemistry not given here)”, the “Fold” value stood at 1071.3 fold.

On to “N5_1F12 (CTGGGGAGTCCT; chemistry not given here)”, for which the “Fold” value came out at 1057.8 fold.

With “N5_1G2 (CTGGGGAGTCCT; chemistry not given here)”, the “Fold” value stood at 517.7 fold. Next, “N5_1G4 (CTGGGGAGTCCT; chemistry not given here)”: 86.0 fold; “N5_1G5 (CTGGGGAGTCCT; chemistry not given here)”: 804.6 fold. Take “N5_1G6 (CTGGGGAGTCCT; chemistry not given here)”: the “Fold” value turned out to be 1311.6 fold. Next, “N5_1G8 (CTGGGGAGTCCT; chemistry not given here)”: 888.7 fold; “N5_1G9 (CTGGGGAGTCCT; chemistry not given here)”: 1230.3 fold. “N5_1G10 (CTGGGGAGTCCT; chemistry not given here)”: the “Fold” value was 1000.2 fold. Consider “N5_1G11 (CTGGGGAGTCCT; chemistry not given here)”, for which the “Fold” value turned out to be 789.0 fold.

In the case of “N5_1H1 (CTGGGGAGTCCT; chemistry not given here)”, the “Fold” value came to 84.1 fold. Next, “N5_1H2 (CTGGGGAGTCCT; chemistry not given here)”: 386.6 fold. “N5_1H3 (CTGGGGAGTCCT; chemistry not given here)”: the “Fold” value is on record as 764.7 fold. Take “N5_1H4 (CTGGGGAGTCCT; chemistry not given here)”: the “Fold” value is 482.5 fold.

Turning to “N5_1H6 (CTGGGGAGTCCT; chemistry not given here)”, the “Fold” value is 654.9 fold. Next, “N5_1H7 (CTGGGGAGTCCT; chemistry not given here)”: 1032.1 fold. Next, “N5_1H8 (CTGGGGAGTCCT; chemistry not given here)”: 622.6 fold; “N5_1H9 (CTGGGGAGTCCT; chemistry not given here)”: 714.2 fold; “N5_1H10 (CTGGGGAGTCCT; chemistry not given here)”: 781.1 fold. With “N5_1H11 (CTGGGGAGTCCT; chemistry not given here)”, the “Fold” value is 413.6 fold. For the substance “N5_2B5 (CTGGGGAGTCCT; chemistry not given here)”, the “Fold” value worked out at 1107.3 fold.

Consider “N5_2B11 (CTGGGGAGTCCT; chemistry not given here)”, for which the “Fold” value is on record as 1009.4 fold.

As for “N5_2C2 (CTGGGGAGTCCT; chemistry not given here)”, the “Fold” value was determined as 894.7 fold. Next, “N5_2C5 (CTGGGGAGTCCT; chemistry not given here)”: 1055.1 fold. Next, “N5_2D8 (CTGGGGAGTCCT; chemistry not given here)”: 1047.3 fold; “N5_2D9 (CTGGGGAGTCCT; chemistry not given here)”: 735.9 fold; “N5_2D10 (CTGGGGAGTCCT; chemistry not given here)”: 884.5 fold. For “N5_2E6 (CTGGGGAGTCCT; chemistry not given here)”, the “Fold” value worked out at 685.6 fold.

For “N5_2E11 (CTGGGGAGTCCT; chemistry not given here)”, the “Fold” value is 1038.1 fold.

For the substance “N5_2F10 (CTGGGGAGTCCT; chemistry not given here)”, the “Fold” value stood at 1014.6 fold. As for “N5_2F12 (CTGGGGAGTCCT; chemistry not given here)”, the “Fold” value was found to be 1100.0 fold. For “N5_2G5 (CTGGGGAGTCCT; chemistry not given here)”, the “Fold” value worked out at 715.9 fold. Next, “N5_2G10 (CTGGGGAGTCCT; chemistry not given here)”: 1249.7 fold; “N5_3A2 (CTGGGGAGTCCT; chemistry not given here)”: 718.0 fold. Next, “N5_3A3 (CTGGGGAGTCCT; chemistry not given here)”: 1066.3 fold; “N5_3C8 (CTGGGGAGTCCT; chemistry not given here)”: 835.1 fold.

With “N5_3C10 (CTGGGGAGTCCT; chemistry not given here)”, the “Fold” value is 751.6 fold. Next, “N5_3D3 (CTGGGGAGTCCT; chemistry not given here)”: 1222.7 fold; “N5_3D8 (CTGGGGAGTCCT; chemistry not given here)”: 824.4 fold. Next, “N5_3F9 (CTGGGGAGTCCT; chemistry not given here)”: 909.7 fold; “N5_3F10 (CTGGGGAGTCCT; chemistry not given here)”: 894.3 fold; “N5_3F11 (CTGGGGAGTCCT; chemistry not given here)”: 1628.3 fold.

“N5_3G12 (CTGGGGAGTCCT; chemistry not given here)”: the “Fold” value is 756.5 fold. For “N5_4D7 (CTGGGGAGTCCT; chemistry not given here)”, the “Fold” value is recorded as 588.1 fold.

The values above are taken from patent publication US20250101436A1, “APTAMERS AND SMALL MOLECULE LIGANDS” (MeiraGTx UK II Limited, priority 2021, published 2025).
